Laboratory results from patent US20250170114A1, “METHODS OF TREATMENT USING T-TYPE CALCIUM CHANNEL MODULATORS” (Praxis Precision Medicines, Inc., priority 2022, published 2025).

What was measured:
[1] = test system: Harmaline induced tremor activity in male Sprague Dawley (SD) rats; experiment: Harmaline-induced tremor activity measured with a piezoelectric plate; type: in vivo, rat; details: harmaline 30 mg/kg i.p., 1 mg/kg p.o. alone
Method: This study sought to evaluate the effects of the HCl salt of the compound of Formula (I) (the “study drug”) administered alone (1 mg/kg, p.o.) or in combination with propranolol (1 and 3 mg/kg, i.p. at 20 min prior) in Harmaline (10 or 30 mg/kg, i.p.) induced tremor activity measured with a piezoelectric plate in male Sprague Dawley (SD) rats.
Rats were fed ad lib and kept at a 12:12 light-dark cycle throughout the study. There were N=15 in each group. Harmaline and propranolol were each formulated with saline using a volume of 5 ml/kg bodyweight. Vehicle for the study drug (1 mg/kg) was 0.5% methyl cellulose/0.1% Tween-80 in water.
1) Rats were allowed to acclimate in standard laboratory animal facility conditions for at least 5-7 days prior to use. 2) Rat was put in a Plexiglas chamber with a piezoelectric plate attached at the bottom to transduce tremor behavior into electronic signal. […] 3) One day prior to the first testing day, a naive rat was put in the testing chamber to confirm that the spontaneous activity baseline was within the range of 3000-10000 uv, as this sensitivity level generally allows all the tremor signal to be detected with the system. […] 11) Post-harmaline effect was measured for 20 min (10-30 min). […]

[2] = test system: harmaline-induced motor impairment in male SD rats; experiment: Rotarod test with harmaline in SD rats; type: in vivo, rat; details: harmaline 30 mg/kg, dose of 3 and 10 mg/kg
Method: Each of six groups of male SD rats were subjected to a tremor assessment, followed by three ADL-like measures including open field test, rotarod test, and wire grip test after receiving doses of either vehicle, Formula (I), or propranolol, followed by either saline or harmaline, as outlined below in Table 22 below.
Fifteen minutes after the open field test, the rats were subjected to a rotarod test. The speed of the rotarod increased from 10 rpms to 60 rpms within the first five minutes of the test. FIG. 9 is a bar graph showing the mean of latency to fall in the rotarod test measured in rats that were administered 30 mg/kg harmaline and also administered 10 mg/kg propranolol or 1 mg/kg, 3 mg/kg or 10 mg/kg study drug.

[3] = test system: participants with ET; experiment: Phase 2 trial: Patient Global Impression of Change (PGI-C); type: in vivo, human; details: Part B RWD (RWAS), Day 70, study drug group, n = 5, vs randomization baseline
From the text: The Patient Global Impression of Change (PGI-C) assesses the participant's improvement (or worsening). The participant is required to assess their condition relative to Baseline (Day 0) on a 7-point scale from 1 (very much improved) to 7 (very much worse). The assessment is made independent of whether the participant believes the improvement/worsening was drug-related or not. In some embodiments, the method results in a reduction in PGI-C score compared to baseline. The Columbia-Suicide Severity Rating Scale (C-SSRS) assesses suicidal ideation and behavior in participants during participation in a clinical trial of centrally-acting drugs. The C-SSRS is composed of 5 questions addressing suicidal behavior and 5 questions addressing suicidal ideation, with sub-questions assessing the severity. The tool should be administered via interview with the participant (by a trained operator/interviewer) and takes about 5 to 10 minutes to complete. In some embodiments, the method results in a reduction in suicidal ideation and/or behavior as compared to suicidal ideation and/or behavior prior to treatment. In other embodiments, the method results in no change in the C-SSRS score of a patient as compared to the C-SSRS score prior to treatment. Key safety measures included clinical laboratory evaluations, 12-lead ECG, C-SSRS, and vital signs. Key efficacy assessments included the TETRAS Performance subscale, TETRAS Upper Limb using accelerometry, CGI, and PGI-C. Blood samples were obtained for the determination of study drug plasma concentrations using a validated bioanalytical method and may also be used for method development and/or metabolite characterization. In both phases, key safety measures included clinical laboratory evaluations, 12-lead ECG, C-SSRS, and vital signs. Key efficacy assessments included the TETRAS Performance subscale, TETRAS Upper Limb using accelerometry, CGI, PGI-C, TETRAS ADL Subscale, QUEST, BDI-II, and BAI. Blood samples were obtained for the determination of study drug and metabolite plasma concentrations.

For `CC(C)(C)NC(=O)CN1CCC(CNC(=O)c2cc(F)cc(Cl)c2)CC1.Cl` [Study drug], the “harmaline-induced tremor (tremor power in the 8-13 Hz and 6-15 Hz bands)” value [1] was “significantly reduces”, the “latency to fall in rotarod test vs vehicle and harmaline only” value ([2]; listed as Formula (I)) was “significantly attenuated” and the “latency to fall in rotarod test vs vehicle and harmaline only” value ([2]; listed as compound of Formula (I)) was “significant attenuation of motor impairment”. The “PGI-C Score 3 minimally improved” value [3] was 1 (20.0) n (%), the “PGI-C Score 4 no change” value [3] was 3 (60.0) n (%) and the “PGI-C Score 6 much worse” value [3] was 1 (20.0) n (%).
